# Key:
# [1] = system: C57Bl/6 wild-type mice; experiment: Long-term memory test, inhibitory avoidance (IA); format: in vivo, mouse
# Experimental: For pharmacodynamics (FIG. 5) and cognition (FIG. 7) experiments, adult male C57Bl/6J wild-type mice weighting 18-28 g (8 weeks of age) were used (Charles River). For ALS mouse models (FIG. 6), G93A SOD1 transgenic male and female mice on B6.SJL1-Gur/J background were used (Jackson Laboratory).
# Animals were housed in groups of 3-5 in polypropylene cages (30×40×15 cm) with wire mesh top in a temperature (22±2° C.) and humidity (55±15%) controlled environment on a 12 hour light cycle (07.00-19.00 h lights on), except after surgeries when animal were housed individually. The samples (Vehicle or compounds of the invention) were administered per os (gavage) in a solution made of water supplemented with 0.4% hydroxypropyl methylcellulose (HPMC) Methocel 4KM (w/v) and 0.25% Tween-20 (v/v), as previously described (Thackaberry et al., 2010, Toxicol Sci., 117(2):485-92). Concentrations of the compounds tested ranged from 10 to 100 mg/kg.
# IA test is a well-established memory paradigm in rodents that measures contextual memory associated with a mild electrical footshock in a specific context (the dark compartment of the IA chamber). Groups of 8-week old C57Bl/6 wild-type female mice were tested. Each mouse was handled for 5 minutes per day for at least 4 consecutive days to reduce animal's stress due to experimenter's presence/manipulation during test days. Inhibitory avoidance was carried out in an IA chamber (MedAssociates) that consists in a rectangular Perspex box divided into a safe and a shock compartment separated by an automatically operated sliding door. […] Memory retention was measured at 24 h or 3 weeks after training by placing the mouse back into the lit compartment and recording its latency (in seconds) to enter the dark compartment. […]
# Memory was measured after oral administration of vehicle or compound (1) (100 mg/kg) to young adult male mice orally, and 20 min later a training for IA (FIG. 7). 24 hours and 3 weeks after training, latencies of mice to enter back into the dark compartment of the IA chamber, the place where they received the shock, were measured.
# [2] = system: GLUT1-DS mice; experiment: Rotarod motor function in GLUT1-DS transgenic mice; format: in vivo, mouse; settings: 10 mg/kg oral daily for 19 days
# Experimental: Transgenic mice on 129/SvJ genetic background in which GLUT1 has been knocked-down (GLUT1-DS mice) were used (Wang et al., […], Human Molecular Genetics, 15(7)). Mating colonies were composed of wild-type female mice and GLUT1-DS male mice, or GLUT1-DS female mice and wild-type male mice. F1 pups were genotyped after ear punching at weaning using PCR to determine genotype. Mice of 2 to 3 months of age were used.
# Motor function was measured in wild-type (WT) and GLUT1-DS transgenic mice in the rotarod after 19-day long treatment with Veh. or Compound (1). Mice were administered every day orally vehicle or Compound (1) at a dose of 10 mg/kg. After 14 days of treatment, mice were exposed to rotarod training, which consisted in placing the mouse on an accelerating rotarod (4 to 40 r.p.m.) during 300 seconds. Mice that felt down before training ended, or at the end of training (300 seconds), were removed and put back to their cages. Training took place over 4 consecutive days, and on each training day mice performed 3 consecutive trials with 15 min inter-trial duration. One day after the last training (on the fifth day), mice were tested on the rotarod. Testing consisted in placing mice on the rotarod at a constant speed of 25 r.p.m. Latencies of mice before falling down were recorded.
# [3] = system: primary astrocytes; experiment: Intracellular glycogen quantification; format: cell-based, mouse; settings: 10 μM, 3 h, vs vehicle
# Experimental: Primary cultures of cerebrocortical astrocytes were obtained from 1 to 2-day-old OF1 mouse pups (Charles River). Briefly, cortices were isolated and minced in small pieces under a dissecting microscope. The cells were incubated for 30 min at 37° C. in a solution containing 20 U/ml papain, 1 mM L-cysteine and 10 kU/ml DNase I. After dissociation, papain activity was stopped by the addition of fetal calf serum (FCS). Single-cell suspension was then obtained by mechanical dissociation, which consisted in cells trituration in a DMEM D7777 medium supplemented with 44 mm NaHCO3, 10 ml/L antibiotic/antimycotic solution and 10% FCS. […]
# Astrocytes grown on 12-well plates were used for intracellular glycogen quantifications. […]
# First, the amount of proteins in each sample was quantified to assess whether harvested astrocytes from primary cell cultures yielded enough and equivalent amounts of proteins on each replicates. Proteins were quantified using the micro BCA Protein Assay kit (Thermo Scientific), according to manufacturer's instructions. Next, intracellular glycogen concentrations were quantified using a 250 μl-aliquot of the same stimulated, thawed, and sonicated cell lysate. […] Fluorescence intensity (340 nm excitation/440 nm emission) was measured using a Safire 2 spectrophotometer. […]
# [4] = single dose 100 mg/kg oral before training, vs vehicle
smiles,measurement,setting,value
"COc1cc2ccnc(Nc3ccc(OC(F)(F)F)cc3)c2cc1OC [Example 1, 6,7-dimethoxy-N-(4-(trifluoromethoxy)phenyl)isoquinolin-1-amine]",Latency to enter the dark compartment at training,"[1]; 100 mg/kg oral, 20 min before training",same latencies at training
same,"Latency to enter the dark compartment, 3 weeks after training",[1]; [4],significantly higher
same,"Latency to enter the dark compartment, 24 h after training",[1]; [4],significantly higher
same,"Rotarod performance (latency before falling, 25 r.p.m.)",[2],increased rotarod performance
same,Intracellular glycogen levels,[3],significantly enhances the degradation of intracellular glycogen
